The values below come from ChEMBL document CHEMBL3046853, “Synthesis, antimicrobial evaluation, ot-QSAR and mt-QSAR studies of 2-amino benzoic acid derivatives” (2012).

The source made the active and inactive calls. The calls are words filed in the database; no cut-off is given here.

The test system of test [1] is Aspergillus niger. Description: Fungicidal activity against Aspergillus niger after 7 days by serial dilution technique. In kind it is functional, organism-based.
The test system of test [2] is Candida albicans. Kind of test: Fungicidal activity against Candida albicans. In kind it is functional, organism-based.
Test [3] has as its system Escherichia coli. Kind of test: Bactericidal activity against Escherichia coli. The test is classed as functional, organism-based.
For test [4], the system named is Bacillus subtilis. Description: Bactericidal activity against Bacillus subtilis. In kind it is functional, organism-based.
Test [5] relates to Staphylococcus aureus. Description: Bactericidal activity against Staphylococcus aureus. In kind it is functional, organism-based.
In test [6] the test system is Candida albicans. Description: Antifungal activity against Candida albicans after 2 days by serial dilution technique. In kind it is functional.
Test [7] concerns Aspergillus niger. Kind of test: Antifungal activity against Aspergillus niger after 7 days by serial dilution technique. In kind it is functional.
In test [8] the test system is Escherichia coli. Description: Antibacterial activity against Escherichia coli after 24 hr by serial dilution technique. The test is classed as functional.
Test [9] has as its system Bacillus subtilis. Kind of test: Antibacterial activity against Bacillus subtilis after 24 hr by serial dilution technique. The test is classed as functional.
Test [10] deals with Staphylococcus aureus. Kind of test: Antibacterial activity against Staphylococcus aureus after 24 hr by serial dilution technique. The test is classed as functional.

For the molecule `COc1ccc(NC(=O)c2ccccc2N)cc1`, the result in test [1], in test [2], in test [3], in [4] and in test [5] was Active. Also, the “-logMIC” value in test [6] came out at 1.29; in test [7], 1.29; in test [8], 1.29; in test [9] it was 2.19; in [10] it was 1.29.

As to `CCN(CC)C(=O)c1ccccc1N`, the outcome in test [1], in test [2], in test [3], in [4] and in test [5] was Active. Also, the “-logMIC” value in test [6] is recorded as 1.19; in test [7], 1.49; in test [8], 1.19; in [9] it was 2.09; in test [10], 1.19.

Turning to `CC(C)CCOC(=O)c1ccccc1N` [ISOPENTYL 2-AMINOBENZOATE], the outcome in test [1], in [2], in test [3], in test [4] and in [5] was Active. The “-logMIC” value in [6] was 1.22; in test [7] it was 1.22; in test [8] it was 1.82; in test [9], 2.12; in test [10] it was 1.22.

Regarding `CC(C)COC(=O)c1ccccc1N` [ISOBUTYL 2-AMINOBENZOATE], the outcome in test [1], in test [2], in test [3], in [4] and in [5] was Active. The “-logMIC” value is given as 0.59 in test [6]; 1.06 in test [7]; 1.51 in test [8]; 1.79 in [9]; 0.89 in test [10].

With `CCCCOC(=O)c1ccccc1N` [BUTYL 2-AMINOBENZOATE], the outcome in [1], in [2], in test [3], in [4] and in [5] was Active. The “-logMIC” value in test [6] is given as 1.19; in test [7], 1.3; in test [8], 1.79; in [9] it was 2.09; in [10], 1.2.

Regarding `Cc1ccc(NC(=O)c2ccccc2N)cc1`, the result in [1], in [2], in test [3], in test [4] and in test [5] was Active. Further, the “-logMIC” value in test [6] was determined as 1.26; in test [7], 1.26; in [8], 1.56; in test [9], 2.16; in test [10], 1.26.

With `Nc1ccccc1C(=O)N1CCOCC1` [(2-AMINOPHENYL)(MORPHOLINO)METHANONE], the result in test [1], in [2], in test [3], in test [4] and in test [5] was Active. Further, the “-logMIC” value in test [6] is given as 1.22; in test [7], 1.22; in [8], 1.52; in test [9] it was 1.22; in test [10], 1.22.

With `CCCCCCCOC(=O)c1ccccc1N` [HEPTYL 2-AMINOBENZOATE], the result in [1], in test [2], in [3], in [4] and in [5] was Active. Besides, the “-logMIC” value is recorded as 1.58 in [6]; 1.58 in test [7]; 1.88 in [8]; 1.88 in test [9]; 1.27 in [10].

`CCCCNC(=O)c1ccccc1N`: the result in test [1], in test [2], in test [3], in test [4] and in test [5] was Active. Further, the “-logMIC” value in test [6] stood at 1.19; in test [7] it was 1.2; in test [8], 1.19; in test [9] it was 1.49; in test [10], 1.2.

On to `Cc1ccccc1NC(=O)c1ccccc1N`, for which the result in test [1], in test [2], in test [3], in test [4] and in test [5] was Active. The “-logMIC” value is 1.56 in test [6]; 1.56 in test [7]; 1.26 in [8]; 1.86 in test [9]; 1.26 in [10].

With `COC(=O)c1ccccc1N` [METHYL ANTHRANILATE], the result in [1], in test [2], in [3], in test [4] and in test [5] was Active. Besides, the “-logMIC” value is 1.08 in [6]; 1.08 in [7]; 1.69 in test [8]; 1.99 in test [9]; 1.08 in test [10].

On to `CCCNC(=O)c1ccccc1N`, for which the outcome in test [1], in test [2], in test [3], in test [4] and in [5] was Active. Moreover, the “-logMIC” value in test [6] is reported as 1.12; in [7] it was 1.15; in [8], 1.46; in [9], 2.06; in test [10], 1.15.

Consider `CN(C)C(=O)c1ccccc1N`, for which the result in test [1], in [2], in [3], in [4] and in test [5] was Active. Also, the “-logMIC” value is on record as 0.82 in [6]; 1.42 in [7]; 1.42 in test [8]; 2.02 in [9]; 0.82 in test [10].

Consider `Nc1ccccc1C(=O)Nc1ccccc1`, for which the outcome in test [1], in test [2], in test [3], in [4] and in test [5] was Active. The “-logMIC” value in test [6] amounted to 1.23; in test [7] it was 1.23; in [8] it was 1.23; in test [9], 2.13; in [10], 1.23.

In the case of `Nc1ccccc1C(=O)Nc1cccc(Cl)c1`, the outcome in test [1], in test [2], in test [3], in [4] and in test [5] was Active. In addition, the “-logMIC” value in [6] was 1.3; in test [7] it was 1.3; in test [8] it was 1.6; in test [9], 2.2; in [10] it was 1.3.
